Patent US20240172747A1, “USE OF SORBIC ACID AND SALTS THEREOF AS A NEMATOCIDE” (GONELLA INVENT SOCIETA' A RESPONSABILITA' LIMITATA […], priority 2021, published 2024)
Several values for one entry are separate records, joined by “and”; a condition that tells them apart may be missing. Equal entries are not always repeated.

Assays:
[1] = test system: larvae of the genus Meloydogine, Heterodera and Globodera; settings: laboratory tests
[2] = test system: Meloidogyne incognita eggs
Procedure: In order to evaluate the efficacy in containing the root-knot nematode Meloidogyne incognita, several in vitro experimental tests were carried out using a sorbic acid solution containing 1 mg/ml of active substance at 98% purity. The average of the tests is reported.
This test concentration was tested on unsegmented and embryonated eggs of M. incognita.
The tests carried out were developed in vitro using double concave glass lenses, by introducing 2 ml of the test solution containing 1 mg/ml of sorbic acid, or sterile water in the case of the control. The incubation took place at a room temperature of 22° C., in the dark. The population of M. incognita was from plants raised in an open field of tomatoes (Solanum lycopersicum).
Unsegmented and embryonated eggs: the eggs were collected from the ovisacs and placed in a double concave glass lens in the presence of the solution to be tested.
Counts of hatched larvae were carried out for 7 days with daily counting and microscopic observation.

[3] = test system: nematodes; settings: laboratory test in a jar, after application
Description: A dose ranging from 0.0001% to 0.001% is considered a “sub-lethal” or “nematostatic” dose, and therefore is a dose which may not kill the nematode but inhibits its mobility and pest capacity.

[4] = test system: insects or mites; settings: laboratory tests
[5] = OECD Test Guideline 402; cited from earlier work
[6] = OECD Test Guideline 403; cited from earlier work
[7] = 25° C.; cited from earlier work
[8] = test system: Meloidogyne J2 larvae; assay: Motility/mortality test on Meloidogyne J2 larvae in suspension; type: in vivo; settings: single replicates; for READING % IMMOBILE J2 @ 2 H: 2 h exposure; for % DEAD J2 @ 24 H: 24 h exposure
Procedure: Extraction of root-knot nematodes taken from soil cultivated with basil (Ocimum basilicum) with strong infestation (J2 larvae) from about 500 cc of soil by means of a wool-paper filter (EPPO Bulletin 13,2013) and concentration in distilled water.
The Tests were established by adding an amount of stock solution to one ml of nematode suspension, so as to obtain the final established concentrations.
Nematodes motility parameters were evaluated after 2 h and after 24 h exposure of the J2 larvae to the nematocidal substance.
In the first test, the count was carried out by microscopic observation of immobile nematodes after 2 hours exposure to the product, to evaluate a possible […] effect of the substance. In the second test, the count was carried out by microscopic observation of the nematodes considered dead with strong signs of tissue degeneration (thickening and blistering in the nematode body accompanied by the final folding of the body at right angle).

[9] = test system: M. incognita nematodes
Description: The trial was followed by a test center (third body) in the Vittoria area (RG) in greenhouses with continuous cycles of courgette (Cucurbita pepo) subjected to strong pressure of M. incognita nematodes. […] First application at day 1 after transplantation (DAT), second application at day 7 DAT, third application at day 21 DAT.
The follow-up was scheduled at day 45 (FIG. 5 and FIG. 6) and day 90 after the first treatment. […] Following this screening trial, new large-scale tests will begin to establish optimal doses, modes and volume of distribution. From Table 3 below, it was possible to evaluate the % of nematode attack with a count of the damage present on the root system (galls).

[10] = TEST 1: Potassium Sorbate (80% purity) 250 μg/ml
[11] = TEST 2: Potassium Sorbate 500 μg/ml
[12] = TEST 3: Potassium Sorbate 1 mg/ml

## C/C=C/C=C/C(=O)[O-].C/C=C/C=C/C(=O)[O-].[Ca+2] [Calcium Sorbate, calcium sorbate]
[1]
  effect on larvae of the genus Meloydogine, on Heterodera and Globodera: had an effect

## C/C=C/C=C/C(=O)O [Sorbic Acid, 2,4-hexadienoic acid]
[2]; 1 mg/ml sorbic acid (98% purity), 22° C., dark, Day 1, average of tests
  hatched larvae, Day 1 DAT: 0
[2]; 1 mg/ml sorbic acid, 22° C., dark, Day 2, average of tests
  hatched larvae, Day 2 DAT: 0%
[2]; 1 mg/ml sorbic acid, 22° C., dark, Day 3, average of tests
  hatched larvae, Day 3 DAT: 0%
[2]; 1 mg/ml sorbic acid, 22° C., dark, Day 4, average of tests
  hatched larvae, Day 4 DAT: 0%
[2]; 1 mg/ml sorbic acid, 22° C., dark, Day 5, average of tests
  hatched larvae, Day 5 DAT: 0%
[2]; 1 mg/ml sorbic acid, 22° C., dark, Day 6, average of tests
  hatched larvae, Day 6 DAT: 1%
[2]; 1 mg/ml sorbic acid, 22° C., dark, Day 7, average of tests
  hatched larvae, Day 7 DAT: 3%
[2]; 1 mg/ml sorbic acid, in vitro
  efficacy on egg embryogenesis and larvae: allowing the inhibition of egg embryogenesis and excellent action on larvae, both free and included in ovisacs
[3]
  nematostatic effect: number of immature forms: a greater number of immature forms
[4]
  insecticidal or acaricidal activity: no insecticidal activity (insect kingdom) or acaricidal activity has been found
[1]
  effect on larvae of the genus Meloydogine, on Heterodera and Globodera: had an effect
[5]
  Lethal Dose 50: LD50: > 3000 mg/kg
[6]
  Lethal Concentration 50: LC50: 5.1 mg·L
[7]
  partition coefficient: n-octanol/water, log Pow: 1.32

## C/C=C/C=C/C(=O)[O-].[K+] [Potassium Sorbate, potassium sorbate]
[8]; [10]
  READING % IMMOBILE J2 @ 2 H: 10% and 5% and 7% and 2%
  % DEAD J2 @ 24 H: 15% and 12% and 18% and 10%
[8]; [11]
  READING % IMMOBILE J2 @ 2 H: 40% and 38% and 45% and 43%
  % DEAD J2 @ 24 H: 80% and 76% and 75% (2×)
[8]; [12]
  READING % IMMOBILE J2 @ 2 H: 75% (2×) and 78% and 80%
  % DEAD J2 @ 24 H: 98% and 99% and 100% and 96%
[9]; 10 kg/ha
  Average weight of a courgette: 0.24 kg
[9]; 10 kg/ha, mean of 20 plants
  Average production of a plant, No. courgettes: 15.75
  Average production of a plant, Weight in kg: 3.78 kg
[9]; field application, courgette
  toxicity or damage of the root system: without leading to toxicity or damage of the root system
[1]
  effect on larvae of the genus Meloydogine, on Heterodera and Globodera: had an effect

## Abamectin [REFERENCE, reference compound]
[8]; Reference: Abamectin 90 μg/ml
  READING % IMMOBILE J2 @ 2 H: 100% and 99% (2×) and 98%
  % DEAD J2 @ 24 H: 100% (3×) and 99%

## C/C=C/C=C/C(=O)[O-].[Na+] [Sodium Sorbate, sodium sorbate]
[1]
  effect on larvae of the genus Meloydogine, on Heterodera and Globodera: had an effect
